US7947686B2, “Substituted pyrazolo[4,3-c]pyridine derivatives active as kinase inhibitors” (Nerviano Medical Sciences S.r.l., priority 2005, dated 2011)

Legend:
IGF1R [1] = target: T1, IGF1R (Homo sapiens, UniProt P08069); assay: Western blot analysis of receptor phosphorylation following stimulation with IGF-1 in MCF-7 human breast cancer cells; format: cell-based; parameters: endogenous in cells; host or cells: MCF-7 (ATCC#HTB-22); details: starved MCF-7 cells, increasing concentrations of compound, then 10 nM IGF1; pIGF1R band, FIG. 1
Procedure: [formula] where νb is the baseline velocity, ν is the observed reaction velocity, ν0 is the velocity in the absence of inhibitors, and [I] is the inhibitor concentration. Cell-Based Assays for Inhibitors of IGF-1R Kinase Activity Western Blot Analysis of Receptor Phosphorylation Following Stimulation with IGF-1 in MCF-7 Human Breast Cancer Cells
MCF-7 cells (ATCC#HTB-22) were seeded in 12-well tissue culture plates at 2×10^5 cells/well in E-MEM medium (MEM+Earle's BSS+2 mM glutamine+0.1 mM non-essential amino acids)+10% FCS, and incubated overnight at 37° C., 5% CO2, 100% relative humidity. Cells were then starved by replacing E-MEM+10% FCS with E-MEM+0.1% BSA, and incubating overnight. After this incubation, wells were treated with desired concentrations of compound for 1 hour at 37° C., and were then stimulated with 10 nM recombinant human IGF-1 (Invitrogen, Carlsbad, Calif., USA) for 10 minutes at 37° C. Cells were then washed with PBS and lysed in 100 microL/well cell lysis buffer (M-PER Mammalian Protein Extraction Reagent [Product #78501, Pierce, Rockford, Ill., USA]+10 mM EDTA+Protease inhibitor cocktail [Sigma-Aldrich product #P8340]+phosphatase inhibitor cocktail [Sigma-Aldrich products #P2850+#P5726]). Cell lysates were cleared by centrifugation at 10,000×g for 5 minutes, and 10 microg/lane of cleared lysate protein were run on NuPAGE gels (NuPAGE 4-12% 10-lane Bis-Tris gels, Invitrogen) with MOPS running buffer, then transferred onto Hybond-ECL nitrocellulose filters (Amersham Biosciences, Little Chalfont, Buckinghamshire, UK) using Mini PROTEAN II chambers (Bio-Rad Laboratories, Hercules, Calif., USA). […]
Target sequence in this assay (P08069 31-1367): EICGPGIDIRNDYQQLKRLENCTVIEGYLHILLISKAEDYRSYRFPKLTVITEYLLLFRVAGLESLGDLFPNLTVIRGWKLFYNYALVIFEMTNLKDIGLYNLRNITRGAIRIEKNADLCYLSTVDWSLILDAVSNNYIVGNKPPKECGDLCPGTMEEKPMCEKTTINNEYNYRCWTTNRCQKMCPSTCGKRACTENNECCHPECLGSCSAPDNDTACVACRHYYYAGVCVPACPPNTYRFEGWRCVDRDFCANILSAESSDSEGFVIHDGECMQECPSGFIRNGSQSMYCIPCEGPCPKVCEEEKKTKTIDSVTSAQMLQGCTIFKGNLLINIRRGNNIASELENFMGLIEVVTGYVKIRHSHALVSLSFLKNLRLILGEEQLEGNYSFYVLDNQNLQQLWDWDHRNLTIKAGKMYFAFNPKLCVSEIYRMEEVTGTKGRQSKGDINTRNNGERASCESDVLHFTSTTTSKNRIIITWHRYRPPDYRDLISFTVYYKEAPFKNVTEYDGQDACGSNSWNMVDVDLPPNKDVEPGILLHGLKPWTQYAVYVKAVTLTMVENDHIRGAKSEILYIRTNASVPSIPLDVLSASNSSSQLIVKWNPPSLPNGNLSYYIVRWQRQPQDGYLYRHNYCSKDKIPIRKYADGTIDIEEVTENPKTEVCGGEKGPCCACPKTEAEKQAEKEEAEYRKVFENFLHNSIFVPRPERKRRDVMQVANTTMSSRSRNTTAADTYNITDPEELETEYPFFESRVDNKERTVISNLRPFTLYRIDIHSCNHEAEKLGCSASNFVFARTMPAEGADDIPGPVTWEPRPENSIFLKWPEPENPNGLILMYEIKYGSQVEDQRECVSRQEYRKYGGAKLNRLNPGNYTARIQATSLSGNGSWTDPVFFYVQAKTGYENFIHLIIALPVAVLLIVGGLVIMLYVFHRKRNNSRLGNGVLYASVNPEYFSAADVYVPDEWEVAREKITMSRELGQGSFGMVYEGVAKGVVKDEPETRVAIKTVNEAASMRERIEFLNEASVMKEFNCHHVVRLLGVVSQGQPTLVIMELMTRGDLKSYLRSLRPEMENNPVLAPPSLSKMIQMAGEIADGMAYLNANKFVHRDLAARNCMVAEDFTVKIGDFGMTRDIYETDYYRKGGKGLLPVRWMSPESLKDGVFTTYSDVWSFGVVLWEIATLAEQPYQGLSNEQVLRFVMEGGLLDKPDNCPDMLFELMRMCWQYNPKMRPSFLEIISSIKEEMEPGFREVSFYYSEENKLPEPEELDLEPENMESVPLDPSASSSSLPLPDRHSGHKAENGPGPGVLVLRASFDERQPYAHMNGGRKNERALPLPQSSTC

[2] = tested on: IGF1-induced S6 phosphorylation; assay: Growth factor induced S6 ribosomal protein phosphorylation in primary human fibroblasts; format: cell-based; details: normal human dermal fibroblasts (NHDF), 10 nM IGF-1; read-out: Inhibition of IGF1-induced S6 phosphorylation IC50
Procedure: Growth Factor Induced […] Ribosomal Protein Phosphorylation in Primary Human Fibroblasts.
Phosphorylation of S6 ribosomal protein in response to growth factor stimulation of normal human dermal fibroblasts (NHDF) was used to assess compound potency in inhibiting IGF-1 induced signal transduction in cells, and selectivity towards EGF and PDGF stimulus. NHDF cells obtained from PromoCell (Heidelberg, Germany), were maintained at 37° C. in a humidified atmosphere with 5% CO2 in complete Fibroblast Growth Medium (PromoCell). For assay, NHDF were seeded in 384-well tissue culture plates (clear- and flat-bottomed black plates; Matrix Technologies Inc., Hudson, N.H., USA) at a density of 5000 cells/well in serum-free medium containing 0.1% bovine serum albumin (BSA) and incubated for 5 days. Starved cells were treated for 1 hour with desired doses of compounds and then stimulated for a further 2 hours with either 10 nM IGF-1 (Invitrogen Corp., CA, USA), 10 nM EGF (Gibco BRL, USA) or 1 nM PDGF-B/B (Roche Diagnostics GmbH, Germany). Cells were then fixed in PBS/3.7% paraformaldehyde for 20 minutes at room temperature, washed ×2 with PBS, and permeabilized with PBS/0.3% Triton X-100 for 15 minutes. Wells were then saturated with PBS/1% non-fat dry milk (Bio-Rad Laboratories, Hercules, Calif., USA) for 1 hour, and then probed for 1 hour at 37° C. with anti-phospho-S6 (Ser 235/236) antibody (Cell Signaling Technology, Beverly, Mass., USA, cat. #2211) at 1/200 dilution in PBS/1% milk/0.3% Tween 20. […] Fluorescence images in the DAPI and Cy5™ channels were automatically acquired, stored and analysed using a Cellomics ArrayScan™ IV instrument (Cellomics, Pittsburgh, USA); the Cellomics Cytotoxicity Algorithm was used to quantify cytoplasmic fluorescence associated with phospho-S6 (Cy5™ signal parameter: “Mean Lyso Mass-pH”) for each cell in 10 fields/well, and eventually expressed as a mean population value. […]

IGF1R [3] = target: T1, IGF1R; assay: Biochemical assay for inhibitors of IGF-1R kinase activity (trans-phosphorylation, 33P-ATP, Dowex); parameters: amino acid residues 960-1367 of precursor protein; made in house; host or cells: H5 insect cells (baculovirus; virus produced in Sf21 cells); details: read-out: IGF1R IC50 (μM) Biochemical assay
Procedure: Human cDNA was used as template for amplification by polymerase chain reaction (PCR) of the predicted cytoplasmic portion of IGF-1R (amino acid residues 960-1367 of precursor protein; see NCBI Entrez Protein Accession #P08069) which includes the entire kinase domain. PCR was conducted using the forward primer sequence 5′-[…]-3′ (SEQ ID NO:1) and the reverse primer sequence 5′-[…]-3′ (SEQ ID NO:2). In order to facilitate subsequent cloning steps, both primers comprise a BamHI restriction endonuclease site sequence. This PCR product was cloned in frame using BamHI sticky ends into a transfer vector for the baculovirus expression system, pVL1392 (Pharmingen), previously modified by insertion into the pVL1392 multiple cloning site of sequences encoding Glutathione S-transferase (GST) fusion protein, PreScission protease cleavage site and partial MCS cassette derived from the pGex-6P plasmid (Amersham BioSciences). Insertion of the IGF-1R PCR product described above into the pGex-6P derived BamHI site of the modified pVL1392 vector results in an open reading frame corresponding to the pGEX-6P GST protein and PreScission peptide fused with the human IGF-1R cytoplasmic domain. In order to obtain fusion protein, Sf21 insect cells (Invitrogen) are cotransfected with 2 microg of purified plasmid and 1 microg of virus DNA (BaculoGold™ Transfection Kit, Pharmingen), as described in the Baculovirus Instruction manual (Pharmingen). A first amplification of the virus is performed using 600 microL of cotransfected virus on 6×10^6 Sf21 in a monolayer culture, in 12 mL of medium (TNM-FH Grace's medium—Pharmingen). After 3 days the medium is collected, centrifuged and transferred to a sterile tube. A second amplification is prepared with the same method using 2 mL on 3×10^7 cells, diluted in 40 mL of medium. For the third amplification of virus, 1 mL of supernatant from the second round are used per 3×10^7 cells diluted in 40 mL of medium. […]
The inhibitory activity of putative kinase inhibitors and the potency of selected compounds were determined using a trans-phosphorylation assay. […]
Target sequence in this assay (P08069 960-1367): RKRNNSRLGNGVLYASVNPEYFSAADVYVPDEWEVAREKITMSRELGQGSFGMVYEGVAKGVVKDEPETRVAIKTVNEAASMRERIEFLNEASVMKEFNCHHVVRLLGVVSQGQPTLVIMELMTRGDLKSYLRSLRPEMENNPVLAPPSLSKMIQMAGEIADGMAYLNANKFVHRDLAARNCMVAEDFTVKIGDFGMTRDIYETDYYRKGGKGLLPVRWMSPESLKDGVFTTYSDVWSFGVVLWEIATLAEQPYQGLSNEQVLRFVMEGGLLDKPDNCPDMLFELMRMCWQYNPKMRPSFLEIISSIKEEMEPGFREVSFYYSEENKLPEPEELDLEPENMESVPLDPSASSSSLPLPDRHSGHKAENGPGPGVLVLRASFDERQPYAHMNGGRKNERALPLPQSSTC

Q: Which “inhibition of IGF1R auto-phosphorylation” value (IGF1R [1]) does the source give for `CN1CCN(c2ccc(C(=O)Nc3n[nH]c4c3CN(S(=O)(=O)c3cc(F)cc(F)c3)CC4(C)C)c(NC(=O)C3CCOCC3)c2)CC1` [Compound 293, Tetrahydro-pyran-4-carboxylic acid [2-[5-(3,5-difluoro-benzenesulfonyl)-7,7-dimethyl-4,5,6,7-tetrahydro-1H-pyrazolo[4,3-c]pyridin-3-ylcarbamoyl]-5-(4-methyl-piperazin-1-yl)-phenyl]-amide] here?
A: Its value is “inhibition of IGF1-induced IGF1R auto-phosphorylation”.

Q: And the IC50 [2]?
A: Its IC50 is 280 nM.

Q: And the IC50 (IGF1R [3])?
A: Its IC50 is 0.14 µM.

Q: For `CN1CCN(c2ccc(C(=O)Nc3n[nH]c4c3CN(S(=O)(=O)c3cc(F)cc(F)c3)CC4)c(NCc3ccco3)c2)CC1` [Compound 52, N-[5-(3,5-Difluoro-benzenesulfonyl)-4,5,6,7-tetrahydro-1H-pyrazolo[4,3-c]pyridin-3-yl]-2-[(furan-2-ylmethyl)-amino]-4-(4-methyl-piperazin-1-yl)-benzamide], which “inhibition of IGF1R auto-phosphorylation” value (IGF1R [1]) is on record?
A: The value was “inhibition of IGF1-induced IGF1R auto-phosphorylation”.

Q: And the IC50 [2]?
A: Its IC50 is 640 nM.

Q: What about the IC50 (IGF1R [3]) of the same compound?
A: Its IC50 is 0.055 µM.

Q: `CN1CCN(c2ccc(C(=O)Nc3n[nH]c4c3CN(S(=O)(=O)c3cc(F)cc(F)c3)CC4)c(NC(=O)c3ccc[nH]3)c2)CC1` [Compound 28, 1H-Pyrrole-2-carboxylic acid [2-[5-(3,5-difluoro-benzenesulfonyl)-4,5,6,7-tetrahydro-1H-pyrazolo[4,3-c]pyridin-3-ylcarbamoyl]-5-(4-methyl-piperazin-1-yl)-phenyl]-amide] was tested. Which “inhibition of IGF1R auto-phosphorylation” value (IGF1R [1]) did it give?
A: The value was “inhibition of IGF1-induced IGF1R auto-phosphorylation”.

Q: What about the IC50 [2] of the same compound?
A: Its IC50 is 80 nM.

Q: And the IC50 (IGF1R [3])?
A: The IC50 was 0.049 µM.
